Data from patent publication US20130209386A1, “NEW USES” (EVOCUTIS PLC, priority 2010, published 2013).
Several values for one entry are separate records, joined by “and”; a condition that tells them apart may be missing. Identical values can stand only once. Like-named read-outs stand apart in the source and are kept apart here. Marks after values point to notes of the source that are not given here.

Assays:
P. acnes NCTC 737 = test: Fixed ratio combination MIC/MBC assays; format: cell-based, Propionibacterium acnes
Method: (§1) (g) Fixed Ratio Combination MIC/MBC Assays
(§2) This method used a sterile 96-well microtitre plate, capable of holding about 200 μl of liquid per well. The wells contained liquid culture medium and ranges of decreasing concentrations of the relevant test compounds alone in doubling dilutions (eg 1000, 500, 250, 125 . . . μg/ml, etc. down to 0.49 μg/ml) or doubling dilutions of a combination of two compounds mixed initially at a fixed concentration ratio (based on molarity in this instance). The culture medium was as described above.
(§3) The wells were inoculated with a liquid suspension of freshly grown micro-organism and incubated under the conditions described above. After incubation, the microtitre plate was examined visually (with the aid of a light box) for cloudiness in each well, which would indicate microbial growth. The MIC value was recorded as the lowest concentration of test compounds alone or concentrations of the mixture of the two test compounds required to inhibit microbial growth, ie the liquid in the well remained clear.
(§4) The assays were conducted in triplicate and included both negative (culture medium with no micro-organisms) and positive (culture medium plus diluting solvent(s) plus micro-organism) controls.
(§5) These samples were then individually sub-cultured on antibiotic-free agar medium, under the incubation conditions described above. Following incubation they were examined visually for microbial growth.
(§6) Thus for each mixture tested, the FIC for compound A (FICA)=MIC for (A+B)/MIC for A alone. Similarly the FIC for compound B (FICB)=MIC for (A+B)/MIC for B alone. The overall FICI=FICA+FICB.
(§7) FBC & FBCI were calculated in the same manner using recorded MBC values.

C. striatum NCTC 764 = test: Fixed ratio combination MIC/MBC assays; format: cell-based, Corynebacterium striatum
Method: The second test organism used was Corynebacterium striatum NCTC 764. This is a Gram-positive bacterium which is closely related to organisms (aerobic diphtheroids of the genus Corynebacterium) that cause body odour (Guillet et al, Eur J Dermatol, 2000 Jan-Feb, 10(1): 41-2). The C. striatum was cultured and maintained on Mueller-Hinton Medium (agar and broth) at pH 7.3 (±0.1); cultures were incubated aerobically at 37° C. for 18-24 hours.
as §1, §2, §3, §4, §5, §6, §7

[1] = test system: Propionibacterium acnes NCTC 737; test: Minimum biocidal concentration (MBC) assay; format: cell-based
Method: (§8) The first test organism used was Propionibacterium acnes NCTC 737. This is a propionibacterial strain and is the type strain of the genus; it is fully susceptible to antibiotics. The propionibacteria are clinically significant due to their involvement in acne. They are also opportunistic pathogens in compromised hosts. Activity observed against these micro-organisms is expected to be a good predictor of activity against acne.
(§9) The propionibacteria were cultured and maintained on Wilkins-Chalgren Anaerobe Medium (agar and broth) at pH 6.0; all cultures were incubated anaerobically at 37° C. for 72 hours.
(b) Minimum Biocidal Concentration (MBC) Assay
This assay, normally carried out after an MIC assay, determines the minimum concentration of a compound that is lethal to the micro-organism being tested.
as §5

[2] = test system: Propionibacterium acnes NCTC 737; test: Disc diffusion assay (DDA) and synergy disc diffusion assay (SDDA); format: cell-based
Method: (c) Disc Diffusion Assay (DDA)
This is an internationally recognised standard method for qualitatively assessing the antimicrobial activity of a compound or combination of compounds.
A sterile paper disc was impregnated with a sample of the test compound(s) in a suitable solvent (or applied neat) and 30 minutes allowed for any of the solvents to evaporate (where possible). The disc was then placed on an agar plate onto which the test micro-organism had been inoculated. The plate was then incubated under the conditions described above, following which it was examined visually for signs of microbial growth. […] The diameter of this zone of “inhibition” was measured using a ProtoCOL™ automated zone sizer (Synbiosis, Cambridge, UK).
(d) Synergy Disc Diffusion Assay (SDDA)
This is a variation on the DDA method, in which two compounds are tested together for their combined antimicrobial activity.
Two test compounds A and B were placed on a single paper disc and the above described DDA procedure repeated.
The two compounds were then subjected in combination to the SDDA assay described above.
MIC/MBC experiments were performed in duplicate and (S)DDA experiments in triplicate.
The tropolone was dissolved in ethanol.

[3] = test system: Propionibacterium acnes NCTC 737; test: Minimum inhibitory concentration (MIC) assay; format: cell-based
Method: as §8, §9
(a) Minimum Inhibitory Concentration (MIC) Assay
This is a standard international method for quantitatively assessing the antimicrobial activity of a compound in a liquid medium. The method used a sterile 96-well microtitre plate, capable of holding about 200 μl of liquid per well. The wells contained liquid culture medium and ranges of decreasing concentrations of the relevant test compound in doubling dilutions (eg 1000, 500, 250, 125 . . . μg/ml, etc, down to 0.49 μg/ml). The culture media were as described above.
The wells were inoculated with a liquid suspension of freshly grown micro-organism and incubated under the conditions described above. After incubation, the microtitre plate was examined visually (with the aid of a light box) for cloudiness in each well, which would indicate microbial growth. The MIC value was recorded as the lowest concentration of test compound required to inhibit microbial growth, ie the lowest concentration for which the liquid in the well remained clear.
The assays included both negative (culture medium with no micro-organisms) and positive (culture medium plus diluting solvent plus micro-organism) controls.

[4] = C. striatum NCTC 764, compound alone
[5] = P. acnes NCTC 737, compound alone
[6] = compound alone, 12.5 μg per disc (gluconate, picolinate 25 μg; silicate 12.4 μg; chlorophyllin 200 μg)
[7] = copper salt + tropolone versus the greater single zone
[8] = copper salt combined with tropolone on one disc, 12.5 μg each (exceptions b187)

Molecule | MBC (C. striatum NCTC 764; [4]) | MIC (C. striatum NCTC 764; [4]) | MBC [1, 5] | MIC/MBC ratio [1, 5] | DDA zone of inhibition diameter [2, 6] | SDDA area increase [2, 7] | SDDA increase [2, 7] | (S)DDA with tropolone [2, 8] | MIC [3, 5] | other results
CC(C)c1cccc(=O)c(O)c1 [Hinokitiol, 2-hydroxy-4-isopropyl-2,4,6-cycloheptatrien-1-one] |  |  |  |  |  |  |  |  |  | MBC (P. acnes NCTC 737; Cutibacterium acnes, NCTC737, compound alone, read-out: MBC): 62.5 µg/mL; MIC (P. acnes NCTC 737; Cutibacterium acnes, NCTC737, compound alone, read-out: MIC): 31.2 µg/mL
[Cl][Bi]([Cl])[Cl] [Bismuth (III) chloride] |  |  |  |  |  |  |  |  |  | MBC (P. acnes NCTC 737; compound alone): 27 µg/mL and 40 µg/mL
O=C([O-])CC(O)(CC(=O)[O-])C(=O)[O-].[Bi+3] [Bismuth (III) citrate] |  |  |  |  |  |  |  |  |  | MBC (P. acnes NCTC 737; compound alone): 8.5 µg/mL; MIC (P. acnes NCTC 737; compound alone): 2.1 µg/mL; MBC (C. striatum NCTC 764): >67.9** μg/ml; MIC (C. striatum NCTC 764): >67.9** μg/ml
Bismuth (III) subnitrate | >249.4** μg/ml | >249.4** μg/ml |  |  |  |  |  |  |  | MBC (P. acnes NCTC 737; compound alone): 15.6 µg/mL; MIC (P. acnes NCTC 737; compound alone): 3.9 µg/mL
Sodium copper (II) chlorophyllin | >185** μg/ml | 23.2 µg/mL | 31.25 µg/mL | 0.5 | 0.00 mm | 220.07% | 10.44 mm | 23.67 mm | 15.6 µg/mL | 
Copper (II) gluconate | >116** μg/ml | >116** μg/ml | 125 µg/mL | 0.5 | 26.25 mm | 40.43% | 4.86 mm | 31.11 mm | 62.5 µg/mL | 
Copper (II) silicate | >35.7** μg/ml | >35.7** μg/ml | 38.75 µg/mL | 0.125 | 33.80 mm | 3.08% | 0.52 mm | 34.32 mm | 4.84 µg/mL | 
O.O=C(O)CC(O)(CC(=O)O)C(=O)O.[Ag].[Ag].[Ag] [Silver (I) citrate hydrate] | 11.3 µg/mL | 2.83 µg/mL |  |  |  |  |  |  |  | 
Copper (II) carbonate basic | >28.3** μg/ml | >28.3** μg/ml | 31.25 µg/mL | 0.25 | 9.10 mm | 102.17% | 5.58 mm | 18.81 mm | 7.8 µg/mL | 
O=C([O-])CN(CCN(CC(=O)[O-])CC(=O)[O-])CC(=O)[O-].[Cu+2].[Na+].[Na+] [EDTA copper (II) disodium salt] |  |  | >250 µg/mL | <0.03 | 10.03 mm | 328.62% | 14.16 mm | 27.39 mm | 7.8 µg/mL | 
Copper (II) salicylate |  |  |  |  |  |  |  |  |  | MBC [1]: 31.25 µg/mL; MIC/MBC ratio [1]: 0.25; (S)DDA with tropolone [2]: 32.87 mm; DDA zone of inhibition diameter [2]: 28.32 mm; SDDA area increase [2]: 34.70%; SDDA increase [2]: 4.55 mm; MIC [3]: 7.8 µg/mL; MBC (C. striatum NCTC 764): >86** μg/ml; MIC (C. striatum NCTC 764): >86** μg/ml
O=C1CC[C@@H](C(=O)[O-])N1.O=C1CC[C@@H](C(=O)[O-])N1.[Cu+2] [Copper (II) PCA] | >81.9** μg/ml | >81.9** μg/ml | 62.5 µg/mL | 0.25 | 23.36 mm | 55.70% | 5.79 mm | 29.15 mm | 15.6 µg/mL | 
Copper (II) citrate dihydrate |  |  |  |  |  |  |  |  |  | MBC [1]: 31.25 µg/mL; MIC/MBC ratio [1]: 0.06; (S)DDA with tropolone [2]: 32.45 mm; DDA zone of inhibition diameter [2]: 32.04 mm; SDDA area increase [2]: 2.60%; SDDA increase [2]: 0.41 mm; MIC [3]: 1.95 µg/mL; MBC (C. striatum NCTC 764): >45** μg/ml; MIC (C. striatum NCTC 764): >45** μg/ml
Copper (II) picolinate | >78.8** μg/ml | >78.8** μg/ml | 62.5 µg/mL | 1 | 35.25 mm | −14.13% | −2.58 mm | 32.66 mm | 62.5 µg/mL | 
O=C(O)c1cc(O)c2c(c1)[O][Bi]([OH])[O]2 [Bismuth (III) subgallate] | >67.2** μg/ml | >67.2** μg/ml |  |  |  |  |  |  |  | MBC (P. acnes NCTC 737; compound alone): >67.2** μg/ml; MIC (P. acnes NCTC 737; compound alone): >67.2** μg/ml
NCC(=O)[O-].NCC(=O)[O-].[Cu+2] [Copper (II) glycinate] |  |  |  |  |  |  |  |  |  | MBC (C. striatum NCTC 764): >54.2** μg/ml; MIC (C. striatum NCTC 764): >54.2** μg/ml
CC(=O)[O-].CC(=O)[O-].CC(=O)[O-].[Bi+3] [Bismuth (III) acetate] |  |  |  |  |  |  |  |  |  | MBC (P. acnes NCTC 737; compound alone): >46.4** μg/ml; MIC (P. acnes NCTC 737; compound alone): 11.6 µg/mL
CSCC[C@H](NC(C)=O)C(=O)[O-].CSCC[C@H](NC(C)=O)C(=O)[O-].[Cu+2] [Copper (II) acetylmethionate] |  |  | 125 µg/mL | 0.06 | 10.23 mm | 306.27% | 13.44 mm | 26.67 mm | 7.8 µg/mL | 
